This is an account of results in publication PMC6689897, “Drugging an undruggable pocket on KRAS” (Proceedings of the National Academy of Sciences of the …, 2019).

pKd: −log10 of the molar value.

Assay [1] has as its target GCP-KRASG12D (Homo sapiens, UniProt P01116, G12D). Briefly: KD(HSQC) NMR. The class given is binding. Here is the method:
(§1) 80 difference spectrum. Mixtures of four fragments (each at 250 µM) were incubated in 25
(§2) 82 a mixture of GCP-KRASG12D and GDP-KRASG12V (each 4 µM). Binders were identified
(§3) 83 by comparing pre-recorded reference spectra with the STD difference spectrum.
(§4) 84 Deconvolution and confirmation of primary FBS hits obtained from STD-NMR and
(§5) 85 MST was performed using 2D 1H/15N TROSY NMR experiments(2) collected on a
(§6) 86 Bruker Avance III 600 MHz spectrometer equipped with a 5 mm z-gradient TCI cryo-
(§7) 87 probe. Samples were prepared directly before data acquisition using a Tecan Freedom
(§8) 88 Evo pipetting system and delivered by a Bruker Sample Rail to the magnet. Each sample
(§9) 89 contained either 50 µM 15N labeled GDP-KRASG12D or GCP-KRASG12D in 25 mM Tris-
(§10) 90 d11, 100 mM NaCl, 2 mM MgCl2, 0.5 mM TCEP pH 7.4 and 8% (v/v) D2O. Proteins […]
(§11) 92 d6DMSO. Spectra were recorded with 32 transients and 64 data points in the indirect […]
(§12) 100 support compound optimization. 1H/15N SoFast HMQC experiments(3) were recorded in […]
(§13) 102 recorded on a Avance III 700MHz spectrometer equipped with a cryogenically cooled […]
(§14) 107 DMSO. KDs were calculated from the differences in chemical shift induced by t he small […]
(§15) 109 dimension were calculated according to the following equation: […]
(§16) 120 (MicroCalTM, LLC Northampton, MA). Protein solutions were measured in 20 mM […]
(§17) 125 were analyzed with the MicroCal PEAQ-ITC analysis software package. […]

Assay [2] concerns the target GDP-KRASG12D (Homo sapiens, UniProt P01116, G12D). In words: KD(HSQC) NMR. The class given is binding. As to the method: as §1, §2, §3, §4, §5, §6, §7, §8, §9, §10, §11, §12, §13, §14, §15, §16, §17

GDP-KRASG12D, sequence (P01116 1-169 isoform P01116-2 G12D): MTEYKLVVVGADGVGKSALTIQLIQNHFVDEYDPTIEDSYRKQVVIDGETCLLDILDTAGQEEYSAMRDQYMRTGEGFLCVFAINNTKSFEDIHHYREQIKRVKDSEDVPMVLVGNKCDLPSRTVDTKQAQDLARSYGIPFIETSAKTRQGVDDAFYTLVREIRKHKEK
GCP-KRASG12D, sequence (P01116 1-169 isoform P01116-2 G12D): as above

A word on the pKd: it is −log10 of the Kd, conventionally taken in molar units. On to `CN(C)Cc1[nH]c2ccccc2c1[C@H]1NC(=O)c2ccc(O)cc21` [Compound 18], for which the pKd in assay [1] was 4.77; in assay [2], 4.80.
